Measured values: patent publication US10253049B2, “Boronic acid derivatives” (MERCK PATENT GMBH, priority 2014, dated 2019)

Columns and labels:
[1] = biological target: LMP7 (purified human immunoproteasome) (Homo sapiens, UniProt P28062); test: Determination of LMP7 activity (fluorescence intensity assay, Suc-LLVY-AMC); type: biochemical
Protocol: Determination of LMP7 Activity
Measurement of LMP7 inhibition is performed in 384 well format based on fluorescence intensity assay.
(§1) Purified human immunoproteasome (0.25 nM) and serial diluted compounds in DMSO (range of concentrations from 30 μM to 15 pM) or controls are incubated for 20 minutes or 120 minutes (long incubation) at 25° C. in assay buffer containing 50 mM Tris pH 7.4, 0.03% SDS, 1 mM EDTA and 1% DMSO. The reaction is initiated by the addition of the fluorogenic peptide substrate, Suc-LLVY-AMC (Bachem I-1395), at a concentration of 40 μM. After 60 minutes of incubation at 37° C., fluorescence intensity is measured at λex=350 nm and λem=450 nm with a fluorescence reader (Perkin Elmer Envision reader or equivalent).
(§2) Unless indicated otherwise the results are obtained after incubation for 20 minutes.

[2] = biological target: Beta5 (purified human constitutive proteasome) (Homo sapiens, UniProt P28074); test: Determination of Beta5 activity (fluorescence intensity assay, Suc-LLVY-AMC); type: biochemical
Protocol: Determination of Beta5 Activity
Measurement of Beta5 inhibition is performed in 384 well format based on fluorescence intensity assay.
as §1, with “constitutive proteasome (1.25” for “immunoproteasome (0.25”
as §2

[3] = biological target: LMP7 subunit of the immunoproteasome (Homo sapiens, UniProt P28062); details: Singh et al., Br. J. Hematology 152(2): 155-163; cited from earlier work

IC50 ([1]; incubation for 20 minutes) | IC50 ([2]; incubation for 20 minutes) | Selectivity LMP7 vs Beta5 ([2]; incubation for 20 minutes) | IC50 ([1]; long incubation (120 min)) | IC50 ([2]; long incubation (120 min)) | Selectivity LMP7 vs Beta5 ([2]; long incubation (120 min)) | SMILES | selectivity for the LMP7 subunit of the immunoproteasome [3]
< 50 nM | 0.05 to 0.5 µM | ++++ (++++: 50 ≤ Selectivity < 70) | – | – | – | Cc1ccc(C[C@H](NC(=O)CN(c2ccccc2)S(=O)(=O)c2ccccc2)B(O)O)c(C)c1 [Compound No. 35, [(1R)-1-[[2-[N-(benzenesulfonyl)anilino]acetyl]amino]-2-(2,4-dimethylphenyl)ethyl]boronic acid] | –
50 to 500 nM | > 5 µM | ++++ (++++: 50 ≤ Selectivity < 70) | – | – | – | CCN(CC(=O)N[C@@H](Cc1ccc(C)cc1C)B(O)O)C(=O)CSC [Compound No. 36, [(1R)-2-(2,4-dimethylphenyl)-1-[[2-[ethyl-(2-methylsulfanylacetyl)-amino]acetyl]amino]ethyl]boronic acid] | –
50 to 500 nM | > 5 µM | +++ (+++: 30 ≤ Selectivity < 50) | – | – | – | CCN(CC(=O)N[C@@H](Cc1ccc(C)cc1C)B(O)O)C(=O)CCl [Compound No. 37, [(1R)-1-[[2-[(2-chloroacetyl)-ethyl-amino]acetyl]amino]-2-(2,4-dimethylphenyl)ethyl]boronic acid] | –
< 50 nM | 0.5 to 5 µM | +++++ (+++++: Selectivity ≥ 70) | – | – | – | CN(C)C(=O)C(C(=O)N[C@@H](Cc1coc2ccccc12)B(O)O)c1ccccc1 (stereo partly drawn) [Compound No. 38, [(1R)-2-(benzofuran-3-yl)-1-[[3-(dimethylamino)-3-oxo-2-phenyl-propanoyl]amino]ethyl]boronic acid] | –
500 to 5000 nM | > 5 µM | +++ (+++: 30 ≤ Selectivity < 50) | – | – | – | CCC(=O)N(CC(=O)N[C@@H](Cc1ccsc1)B(O)O)c1ccccc1F [Compound No. 39, [(1R)-1-[[2-(2-fluoro-N-propanoyl-anilino)acetyl]amino]-2-(3-thienyl)ethyl]boronic acid] | –
– | – | – | 500 to 5000 nM | > 5 µM | – | CN(CC(=O)N[C@@H](Cc1ccsc1)B(O)O)C(=O)c1ccccc1C(F)(F)F [Compound No. 40, [(1R)-1-[[2-[methyl-[2-(trifluoromethyl)benzoyl]amino]acetyl]amino]-2-(3-thienyl)ethyl]boronic acid] | –
– | – | – | < 50 nM | 0.5 to 5 µM | +++++ (+++++: Selectivity ≥ 70) | Cc1ccc(S(=O)(=O)N(CC(=O)N[C@@H](C[C@@H]2COc3ccccc32)B(O)O)C(C)C)cc1 [Compound No. 41, [(1R)-2-[(3S)-2,3-dihydrobenzofuran-3-yl]-1-[[2-[isopropyl(p-tolylsulfonyl)amino]acetyl]amino]ethyl]boronic acid] | –
– | – | – | < 50 nM | 0.05 to 0.5 µM | +++++ (+++++: Selectivity ≥ 70) | CCN(CCC(=O)N[C@@H](C[C@@H]1COc2ccccc21)B(O)O)C(=O)c1ccc(Cl)cc1 [Compound No. 42, [(1R)-1-[3-[(4-chlorobenzoyl)-ethyl-amino]propanoylamino]-2-[(3S)-2,3-dihydrobenzofuran-3-yl]ethyl]boronic acid] | –
– | – | – | 50 to 500 nM | > 5 µM | +++++ (+++++: Selectivity ≥ 70) | CCN(CC(=O)N[C@@H](Cc1coc2c(C)cccc12)B(O)O)S(=O)(=O)c1ccc(C)cc1 [Compound No. 43, [(1R)-1-[[2-[ethyl(p-tolylsulfonyl)amino]acetyl]amino]-2-(7-methylbenzofuran-3-yl)ethyl]boronic acid] | –
– | – | – | – | – | – | CC1=C(C(=O)N[C@H](C)C(=O)N[C@@H](Cc2c[nH]c3ccccc23)C(=O)N[C@@H](Cc2ccccc2)C(=O)[C@@]2(C)CO2)Cc2ccccc21 [PR-924] | 100 fold
